Calls of active or inactive are those of the source. The calls are words filed in the database; no cut-off is given here.
Key:
Format in all cases: cell-based
ND7/23 [1] = test: Inhibition of Voltage-dependent T-type calcium channel in mouse ND7/23 cells assessed as reduction in volatage induced T-type Ca2+ current density at 50 uM incubated for 5 mins by whole cell voltage-clamp assay
[2] = molecular target: Voltage-dependent T-type calcium channel subunit alpha-1I (Homo sapiens) (UniProt Q9P0X4); test: Inhibition of Cav3.3 (unknown origin) stably transfected in HEK293 cells assessed as reduction inactivation time constant transient current at 10 uM incubated for 5 mins by whole cell voltage-clamp assay
Chain of Voltage-dependent T-type calcium channel subunit alpha-1I (Homo sapiens) (Q9P0X4 whole entry): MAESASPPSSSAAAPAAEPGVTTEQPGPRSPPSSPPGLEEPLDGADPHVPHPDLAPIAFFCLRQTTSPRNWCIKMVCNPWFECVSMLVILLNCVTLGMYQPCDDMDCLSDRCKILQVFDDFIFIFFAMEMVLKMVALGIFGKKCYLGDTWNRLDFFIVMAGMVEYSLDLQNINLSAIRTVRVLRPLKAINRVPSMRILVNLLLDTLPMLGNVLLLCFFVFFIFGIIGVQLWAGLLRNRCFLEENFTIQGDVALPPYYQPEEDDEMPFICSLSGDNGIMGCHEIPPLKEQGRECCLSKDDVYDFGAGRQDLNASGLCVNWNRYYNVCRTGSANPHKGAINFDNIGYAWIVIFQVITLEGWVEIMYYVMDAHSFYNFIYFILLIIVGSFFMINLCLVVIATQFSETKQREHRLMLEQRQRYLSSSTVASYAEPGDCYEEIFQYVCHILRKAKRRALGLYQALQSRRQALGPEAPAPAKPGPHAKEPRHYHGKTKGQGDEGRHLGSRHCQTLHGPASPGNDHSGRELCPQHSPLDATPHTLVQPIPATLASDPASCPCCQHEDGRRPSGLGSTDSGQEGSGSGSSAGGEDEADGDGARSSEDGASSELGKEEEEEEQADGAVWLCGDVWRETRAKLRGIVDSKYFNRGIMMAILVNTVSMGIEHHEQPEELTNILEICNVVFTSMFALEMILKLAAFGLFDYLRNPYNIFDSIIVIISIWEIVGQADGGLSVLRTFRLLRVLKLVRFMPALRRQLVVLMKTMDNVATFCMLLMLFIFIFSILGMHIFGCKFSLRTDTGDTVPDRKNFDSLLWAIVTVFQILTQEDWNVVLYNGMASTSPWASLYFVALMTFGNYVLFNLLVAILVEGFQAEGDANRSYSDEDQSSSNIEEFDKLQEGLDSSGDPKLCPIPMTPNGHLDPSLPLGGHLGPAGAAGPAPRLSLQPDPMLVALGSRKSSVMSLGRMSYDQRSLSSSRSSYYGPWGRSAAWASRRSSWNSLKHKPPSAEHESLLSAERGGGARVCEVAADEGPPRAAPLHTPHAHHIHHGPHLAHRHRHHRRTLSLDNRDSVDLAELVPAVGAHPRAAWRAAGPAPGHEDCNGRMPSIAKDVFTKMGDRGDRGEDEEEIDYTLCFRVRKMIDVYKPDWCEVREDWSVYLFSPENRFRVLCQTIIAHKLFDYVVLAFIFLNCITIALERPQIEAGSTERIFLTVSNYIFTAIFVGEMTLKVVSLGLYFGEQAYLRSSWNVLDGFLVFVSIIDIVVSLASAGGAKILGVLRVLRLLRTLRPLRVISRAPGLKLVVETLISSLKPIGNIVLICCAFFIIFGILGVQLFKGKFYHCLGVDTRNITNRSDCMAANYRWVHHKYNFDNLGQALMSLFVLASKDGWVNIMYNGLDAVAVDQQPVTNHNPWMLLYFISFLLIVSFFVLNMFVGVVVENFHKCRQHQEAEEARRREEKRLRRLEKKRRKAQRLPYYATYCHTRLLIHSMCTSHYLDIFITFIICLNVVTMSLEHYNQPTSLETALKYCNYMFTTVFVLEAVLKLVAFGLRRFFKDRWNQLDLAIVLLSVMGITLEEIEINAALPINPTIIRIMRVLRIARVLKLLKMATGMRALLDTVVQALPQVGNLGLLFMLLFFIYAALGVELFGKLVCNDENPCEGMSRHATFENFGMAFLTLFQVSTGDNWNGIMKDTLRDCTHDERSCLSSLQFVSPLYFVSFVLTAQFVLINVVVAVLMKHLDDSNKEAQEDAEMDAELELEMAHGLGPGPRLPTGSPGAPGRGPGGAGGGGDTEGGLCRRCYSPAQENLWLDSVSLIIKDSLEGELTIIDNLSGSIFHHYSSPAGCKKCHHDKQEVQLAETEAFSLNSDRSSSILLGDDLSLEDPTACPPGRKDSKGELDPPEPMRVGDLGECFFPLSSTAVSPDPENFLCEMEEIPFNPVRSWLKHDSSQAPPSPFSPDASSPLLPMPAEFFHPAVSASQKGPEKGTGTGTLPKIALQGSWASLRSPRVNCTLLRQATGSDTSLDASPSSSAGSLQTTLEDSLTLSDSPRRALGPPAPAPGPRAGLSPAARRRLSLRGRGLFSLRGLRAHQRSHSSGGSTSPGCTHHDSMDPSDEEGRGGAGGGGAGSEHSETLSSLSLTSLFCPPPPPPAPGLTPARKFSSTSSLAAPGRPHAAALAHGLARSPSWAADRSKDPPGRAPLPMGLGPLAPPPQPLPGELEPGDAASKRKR

[3] = molecular target: Voltage-dependent T-type calcium channel subunit alpha-1H (Homo sapiens) (UniProt O95180); test: Inhibition of Cav3.2 (unknown origin) stably transfected in HEK293 cells assessed as activation time constant transient current at 10 uM incubated for 5 mins by whole cell voltage-clamp assay
Chain of Voltage-dependent T-type calcium channel subunit alpha-1H (Homo sapiens) (O95180 whole entry): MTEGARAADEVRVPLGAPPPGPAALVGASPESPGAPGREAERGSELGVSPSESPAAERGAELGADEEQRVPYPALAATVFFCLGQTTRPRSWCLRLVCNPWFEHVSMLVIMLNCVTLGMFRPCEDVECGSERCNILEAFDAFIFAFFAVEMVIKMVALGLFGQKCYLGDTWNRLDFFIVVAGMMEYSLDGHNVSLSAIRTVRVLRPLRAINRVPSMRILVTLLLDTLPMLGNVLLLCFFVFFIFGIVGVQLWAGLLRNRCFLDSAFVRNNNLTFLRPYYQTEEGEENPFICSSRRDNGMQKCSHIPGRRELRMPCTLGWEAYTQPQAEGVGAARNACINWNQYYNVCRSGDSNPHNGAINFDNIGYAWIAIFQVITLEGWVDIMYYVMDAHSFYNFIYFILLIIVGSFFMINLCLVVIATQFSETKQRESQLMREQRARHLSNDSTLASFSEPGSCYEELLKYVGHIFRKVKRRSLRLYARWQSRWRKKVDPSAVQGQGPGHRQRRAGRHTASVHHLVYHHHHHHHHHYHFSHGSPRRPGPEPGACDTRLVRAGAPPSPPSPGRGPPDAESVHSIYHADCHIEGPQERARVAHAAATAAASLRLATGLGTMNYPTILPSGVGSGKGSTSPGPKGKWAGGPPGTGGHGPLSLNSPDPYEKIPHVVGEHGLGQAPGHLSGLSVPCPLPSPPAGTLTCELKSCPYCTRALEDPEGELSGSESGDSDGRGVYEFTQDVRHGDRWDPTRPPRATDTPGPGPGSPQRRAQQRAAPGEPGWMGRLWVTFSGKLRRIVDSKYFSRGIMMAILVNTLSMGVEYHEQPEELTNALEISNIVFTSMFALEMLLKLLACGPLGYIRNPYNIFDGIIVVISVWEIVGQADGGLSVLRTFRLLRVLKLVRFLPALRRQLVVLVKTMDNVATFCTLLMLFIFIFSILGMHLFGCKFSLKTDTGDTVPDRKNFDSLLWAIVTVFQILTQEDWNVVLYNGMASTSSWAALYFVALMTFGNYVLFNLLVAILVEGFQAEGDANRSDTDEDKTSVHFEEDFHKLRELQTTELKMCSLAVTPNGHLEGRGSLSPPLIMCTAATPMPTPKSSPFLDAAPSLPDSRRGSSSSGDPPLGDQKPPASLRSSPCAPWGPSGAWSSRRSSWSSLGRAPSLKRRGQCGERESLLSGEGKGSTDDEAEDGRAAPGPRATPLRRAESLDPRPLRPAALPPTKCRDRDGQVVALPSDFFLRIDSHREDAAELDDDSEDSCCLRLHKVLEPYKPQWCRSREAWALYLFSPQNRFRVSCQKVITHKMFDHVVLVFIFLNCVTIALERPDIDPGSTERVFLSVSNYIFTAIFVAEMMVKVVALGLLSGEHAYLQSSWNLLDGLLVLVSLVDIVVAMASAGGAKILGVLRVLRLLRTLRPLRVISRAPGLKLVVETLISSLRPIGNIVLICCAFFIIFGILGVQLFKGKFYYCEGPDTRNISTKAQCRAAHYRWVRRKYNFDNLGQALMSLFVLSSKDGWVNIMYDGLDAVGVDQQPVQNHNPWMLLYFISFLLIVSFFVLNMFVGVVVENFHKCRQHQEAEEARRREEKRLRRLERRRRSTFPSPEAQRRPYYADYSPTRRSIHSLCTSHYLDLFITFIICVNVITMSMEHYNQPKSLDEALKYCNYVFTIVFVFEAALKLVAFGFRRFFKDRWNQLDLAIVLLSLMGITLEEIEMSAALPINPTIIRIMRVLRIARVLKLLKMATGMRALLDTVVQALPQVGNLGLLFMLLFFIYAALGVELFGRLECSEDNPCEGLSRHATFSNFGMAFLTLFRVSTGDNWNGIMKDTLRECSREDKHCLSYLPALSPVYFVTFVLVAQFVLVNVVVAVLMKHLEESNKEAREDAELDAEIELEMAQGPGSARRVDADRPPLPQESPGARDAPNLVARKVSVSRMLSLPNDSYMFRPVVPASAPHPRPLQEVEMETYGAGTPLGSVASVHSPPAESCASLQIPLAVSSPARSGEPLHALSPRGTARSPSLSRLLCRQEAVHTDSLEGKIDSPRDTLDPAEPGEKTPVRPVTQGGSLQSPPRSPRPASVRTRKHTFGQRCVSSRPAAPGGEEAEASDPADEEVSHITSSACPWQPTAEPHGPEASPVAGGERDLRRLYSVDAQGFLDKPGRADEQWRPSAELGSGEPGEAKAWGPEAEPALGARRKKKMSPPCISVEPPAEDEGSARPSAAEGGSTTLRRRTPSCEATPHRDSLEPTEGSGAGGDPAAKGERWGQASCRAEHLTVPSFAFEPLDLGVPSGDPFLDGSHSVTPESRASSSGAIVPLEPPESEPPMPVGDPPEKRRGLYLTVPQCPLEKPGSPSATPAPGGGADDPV

ND7/23 [4] = test: Inhibition of Voltage-dependent T-type calcium channel in mouse ND7/23 cells assessed as reduction in volatage induced T-type Ca2+ current density at 50 uM incubated for 5 mins followed by compound washout by whole cell voltage-clamp assay
[5] = molecular target: Voltage-dependent T-type calcium channel subunit alpha-1H (Homo sapiens) (UniProt O95180); test: Inhibition of Cav3.2 (unknown origin) stably transfected in HEK293 cells assessed as slope factor at 10 uM incubated for 5 mins by whole cell voltage-clamp assay (reference value: 5.2 +/- 0.2No_unit)
[6] = Inhibition of Voltage-dependent T-type calcium channel in mouse ND7/23 cells assessed as reduction in volatage induced T-type Ca2+ current density incubated for 5 mins by whole cell voltage-clamp assay; settings: ND7/23, 5 min
[7] = molecular target: Voltage-dependent T-type calcium channel subunit alpha-1I (Homo sapiens) (UniProt Q9P0X4); test: Inhibition of Cav3.3 (unknown origin) stably transfected in HEK293 cells assessed as activation time constant transient current at 10 uM incubated for 5 mins by whole cell voltage-clamp assay
[8] = molecular target: Voltage-dependent T-type calcium channel subunit alpha-1H (Homo sapiens) (UniProt O95180); test: Inhibition of Cav3.2 (unknown origin) stably transfected in HEK293 cells assessed as volatage induced T-type Ca2+ current at 1 to 50 uM incubated for 5 mins by whole cell voltage-clamp assay; settings: dose 1-50 µM
[9] = molecular target: Voltage-dependent T-type calcium channel subunit alpha-1I (Homo sapiens) (UniProt Q9P0X4); test: Inhibition of Cav3.3 (unknown origin) stably transfected in HEK293 cells assessed as V1/2 at 10 uM incubated for 5 mins by whole cell voltage-clamp assay (reference value: -65.6 +/- 3.1mV)
HEK293 = test: Inhibition of Cav3.2 (unknown origin) stably transfected in HEK293 cells assessed as reduction in volatage induced Ca2+ current density at 10 uM incubated for 5 mins by whole cell voltage-clamp assay; settings: Homo sapiens
[10] = molecular target: Voltage-dependent T-type calcium channel subunit alpha-1H (Homo sapiens) (UniProt O95180); test: Inhibition of Cav3.2 (unknown origin) stably transfected in HEK293 cells assessed as V1/2 at 10 uM incubated for 5 mins by whole cell voltage-clamp assay (reference value: -64.8 +/- 1.3mV)
[11] = molecular target: Voltage-dependent T-type calcium channel subunit alpha-1H (Homo sapiens) (UniProt O95180); test: Inhibition of Cav3.2 (unknown origin) stably transfected in HEK293 cells assessed as reduction in volatage induced peak current at 10 uM incubated for 5 mins by whole cell voltage-clamp assay
[12] = molecular target: Voltage-dependent T-type calcium channel subunit alpha-1I (Homo sapiens) (UniProt Q9P0X4); test: Inhibition of Cav3.3 (unknown origin) stably transfected in HEK293 cells assessed as slope factor at 10 uM incubated for 5 mins by whole cell voltage-clamp assay (reference value: 5.3 +/- 0.6mV)
[13] = molecular target: Voltage-dependent T-type calcium channel subunit alpha-1H (Homo sapiens) (UniProt O95180); test: Inhibition of Cav3.2 (unknown origin) stably transfected in HEK293 cells assessed as increase in recovery time at 10 uM incubated for 5 mins by whole cell voltage-clamp assay (reference value: 514.5 +/- 37.8ms)

| SMILES | inhibition (ND7/23 [1]) | inhibition [2] | inhibition [3] | inhibition (ND7/23 [4]) | Activity [5] | IC50 [6] | inhibition [7] | inhibition [8] | V1/2 [9] | inhibition (HEK293) | V1/2 [10] | inhibition [11] | Activity [12] | TIME [13] |
| --- | --- | --- | --- | --- | --- | --- | --- | --- | --- | --- | --- | --- | --- | --- |
| CC1CC(=O)C=C(NC(=O)c2ccccc2C(F)(F)F)C1 (stereo not given) | Active | – | – | – | – | – | – | – | – | – | – | – | – | – |
| CC1CC(=O)C=C(NC(=O)c2cccc(C(F)(F)F)c2)C1 (stereo not given) | Active | – | – | – | – | – | – | – | – | – | – | – | – | – |
| CC1CC(=O)C=C(NC(=O)c2cc(C(F)(F)F)cc(C(F)(F)F)c2)C1 (stereo not given) | – | Active | Active | Active | 6 | 18.9 µM | Active | Active | -58.5 mV | Active | -70.2 mV | Active | 5.3 | 0.000267 h |

Source: ChEMBL document CHEMBL5143701, “Evaluation of potential anticonvulsant fluorinated N-benzamide enaminones as T-type Ca2+ channel blockers” (Bioorg Med Chem, 2022)
